Laboratory results reported in US12145947B2, “Pyrimidine based modulators and uses thereof” (Quanta Therapeutics, Inc., priority 2022, dated 2024).

Assays:
KRAS G12D/RAF1 = target: T1, KRAS G12D/RAF1 (Homo sapiens, UniProt P01116, G12D); assay: Protein-protein interaction (PPI) HTRF assay KRAS G12D/RAF1; assay type: binding; settings: Table 4
T1 construct: His6-MBP (N, cleaved yes); made in house; host or cells: E. coli
Outline: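 Biotinylated human KRAS (1-169; wt, G12D, G12V) or wt NRAS, GppNHp-loaded, pre-incubated 30 min RT with compound and streptavidin-d2, then His-RAF1 RBD (52-131) with anti-6His Tb cryptate added for 1 h RT. HTRF 665/615 ratio normalized to no compound (0%) and untagged RAF1 (100%); IC50.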

[1] = target: T2, GST-tagged KRAS-G12D (2-169) (Homo sapiens, UniProt P01116, G12D); assay: Nucleotide exchange assay (NEA), SOS-mediated, HTRF, KRAS G12D; assay type: biochemical; settings: Table 4; IC50 extracted at 30 min
T2 construct: GST-tagged KRAS-G12D (2-169, Reaction Biology, MSC-11-539); purchased Reaction Biology MSC-11-539 (KRAS G12D); MSC-11-502 (SOS1cat)
T2 sequence (P01116 2-169 isoform P01116-2 G12D): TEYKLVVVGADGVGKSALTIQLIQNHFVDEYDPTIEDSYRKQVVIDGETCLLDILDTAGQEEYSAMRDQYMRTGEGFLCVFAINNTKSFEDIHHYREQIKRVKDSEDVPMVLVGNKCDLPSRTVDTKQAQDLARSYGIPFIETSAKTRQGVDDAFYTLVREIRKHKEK
Outline: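 GST-KRAS-G12D (2-169, 5 nM final) with Tb-anti-GST donor was preincubated with compound 1 h at RT (pH 7.3 HEPES buffer, MgCl2, DTT), then SOScat (564-1049, 20 nM) and GTP-DY-647P1 (150 nM) were added. HTRF was read at RT; % inhibition vs DMSO/no-SOS blank, 4-parameter IC50 taken at 30 min.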

T1 sequence (P01116 with tags, fused parts or gaps isoform P01116-2 G12D): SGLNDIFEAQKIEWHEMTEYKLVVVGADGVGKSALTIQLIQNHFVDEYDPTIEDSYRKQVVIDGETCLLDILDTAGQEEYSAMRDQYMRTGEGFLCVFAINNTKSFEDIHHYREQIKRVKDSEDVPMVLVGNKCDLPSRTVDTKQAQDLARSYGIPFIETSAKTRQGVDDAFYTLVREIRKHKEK

Row | Compound | IC50 (KRAS G12D/RAF1) [nM] | IC50 [1] [nM]
1 | N#Cc1c(N2C[C@H]3CC[C@@H](C2)N3)nc(OCC2(CN3CCC(F)(F)C3)CC2)nc1N1CC2(CCc3sc(N)c(C#N)c32)C1 [Compound 58, 2-amino-1′-[5-cyano-6-[(1R,5S)-3,8-diazabicyclo[3.2.1]octan-3-yl]-2-[[1-[(3,3-difluoropyrrolidin-1-yl)methyl]cyclopropyl]methoxy]pyrimidin-4-yl]spiro[5,6-dihydrocyclopenta[b]thiophene-4,3′-azetidine]-3-carbonitrile] | 1000 to 10000 | < 10
2 | N#Cc1c(N2C[C@H]3CC[C@@H](C2)N3)nc(OCc2n[nH]cc2Br)nc1N1CC2(CCc3sc(N)c(C#N)c32)C1 [Compound 102, 2-amino-1′-[2-[(4-bromo-1H-pyrazol-3-yl)methoxy]-5-cyano-6-[(1S,5R)-3,8-diazabicyclo[3.2.1]octan-3-yl]pyrimidin-4-yl]spiro[5,6-dihydrocyclopenta[b]thiophene-4,3′-azetidine]-3-carbonitrile] | 10000 to 100000 | < 10
3 | N#Cc1c(N2C[C@H]3CC[C@@H](C2)N3)nc(OCC2(CN3CCOCC3)CC2)nc1N1CC2(C1)c1ccccc1CCC2O (stereo partly drawn) [Compound 53, 4-[(1R,5S)-3,8-diazabicyclo[3.2.1]octan-3-yl]-6-(2′-hydroxyspiro[azetidine-3,1′-tetralin]-1-yl)-2-[[1-(morpholinomethyl)cyclopropyl]methoxy]pyrimidine-5-carbonitrile] | > 100000 | 100 to 1000
4 | CN(C)C(=O)c1nn2c(c1Cl)CN(c1nc(OC[C@@]34CCCN3C[C@H](F)C4)nc(N3CC4(C3)c3ccccc3CCC4(F)F)c1C#N)CCC2 [Compound 35, 3-chloro-5-[5-cyano-6-(2′,2′-difluorospiro[azetidine-3,1′-tetralin]-1-yl)-2-[[(2R,8S)-2-fluoro-1,2,3,5,6,7-hexahydropyrrolizin-8-yl]methoxy]pyrimidin-4-yl]-N,N-dimethyl-4,6,7,8-tetrahydropyrazolo[1,5-a][1,4]diazepine-2-carboxamide] | > 100000 | 1000 to 20000
5 | N#Cc1c(N2C[C@H]3CC[C@@H](C2)N3)nc(OCC2(CN3CCC(F)CC3)CC2)nc1N1CC2(CCc3sc(N)c(C#N)c32)C1 [Compound 28, 2-amino-1′-[5-cyano-6-(3,8-diazabicyclo[3.2.1]octan-3-yl)-2-[[1-[(4-fluoro-1-piperidyl)methyl]cyclopropyl]methoxy]pyrimidin-4-yl]spiro[5,6-dihydrocyclopenta[b]thiophene-4,3′-azetidine]-3-carbonitrile] | 100 to 1000 | 10 to 100
6 | N#Cc1c(N2C[C@H]3CC[C@@H](C2)N3)nc(OCC2(CN3C[C@@H](F)[C@@H](F)C3)CC2)nc1N1CC2(CCc3sc(N)c(C#N)c32)C1 [Compound 78, 2-amino-1′-[5-cyano-6-[(1R,5S)-3,8-diazabicyclo[3.2.1]octan-3-yl]-2-[[1-[[(3S,4R)-3,4-difluoropyrrolidin-1-yl]methyl]cyclopropyl]methoxy]pyrimidin-4-yl]spiro[5,6-dihydrocyclopenta[b]thiophene-4,3′-azetidine]-3-carbonitrile] | > 100000 | 10 to 100
7 | N#CNC1CCCN(c2nc(OC[C@@]34CCCN3C[C@H](F)C4)nc(N3CC4(CCc5sc(N)c(C#N)c54)C3)c2F)C1 (stereo partly drawn) [Compound 54, [1-[6-(2-amino-3-cyano-spiro[5,6-dihydrocyclopenta[b]thiophene-4,3′-azetidine]-1′-yl)-5-fluoro-2-[[(2R,8S)-2-fluoro-1,2,3,5,6,7-hexahydropyrrolizin-8-yl]methoxy]pyrimidin-4-yl]-3-piperidyl]cyanamide] | 100 to 1000 | 100 to 1000
8 | N#Cc1cnc(OCC2(CN3CCOCC3)CC2)nc1N1CC2(CCc3sc(N)c(C#N)c32)C1 [Compound 66, 2-amino-1′-[5-cyano-2-[[1-(morpholinomethyl)cyclopropyl]methoxy]pyrimidin-4-yl]spiro[5,6-dihydrocyclopenta[b]thiophene-4,3′-azetidine]-3-carbonitrile] | 10000 to 100000 | 100 to 1000
9 | C[C@H]1COCCN1CC1(COc2nc(N3C[C@H]4CC[C@@H](C3)N4)c(C#N)c(N3CC4(CCc5sc(N)c(C#N)c54)C3)n2)CC1 [Compound 77, 2-amino-1′-[5-cyano-6-[(1R,5S)-3,8-diazabicyclo[3.2.1]octan-3-yl]-2-[[1-[[(3S)-3-methylmorpholin-4-yl]methyl]cyclopropyl]methoxy]pyrimidin-4-yl]spiro[5,6-dihydrocyclopenta[b]thiophene-4,3′-azetidine]-3-carbonitrile] | 10000 to 100000 | < 10
10 | N#Cc1c(N2C[C@H]3CC[C@@H](C2)[C@@H]3N)nc(OCC2(CN3CCOCC3)CC2)nc1N1CC2(CCc3sc(N)c(C#N)c32)C1 [Compound 61, 2-amino-1′-[6-[(1R,5S)-8-amino-3-azabicyclo[3.2.1]octan-3-yl]-5-cyano-2-[[1-(morpholinomethyl)cyclopropyl]methoxy]pyrimidin-4-yl]spiro[5,6-dihydrocyclopenta[b]thiophene-4,3′-azetidine]-3-carbonitrile] | 100 to 1000 | 10 to 100
11 | N#Cc1c(N2C[C@H]3CC[C@@H](C2)N3)nc(OCC2(CN3CCSCC3)CC2)nc1N1CC2(CCc3sc(N)c(C#N)c32)C1 [Compound 72, 2-amino-1′-[5-cyano-6-[(1R,5S)-3,8-diazabicyclo[3.2.1]octan-3-yl]-2-[[1-(thiomorpholinomethyl)cyclopropyl]methoxy]pyrimidin-4-yl]spiro[5,6-dihydrocyclopenta[b]thiophene-4,3′-azetidine]-3-carbonitrile] | 100 to 1000 | < 10
12 | N#Cc1c(N2C[C@H]3CC[C@@H](C2)N3)nc(OCC2(CN3CCOCC3)CC2)nc1N1CC2(CCc3sc4[nH]cnc(=O)c4c32)C1 [Compound 39, 2-[[1-(morpholinomethyl)cyclopropyl]methoxy]-4-(12-oxospiro[7-thia-9,11-diazatricyclo[6.4.0.02,6]dodeca-1(8), 2(6), 10-triene-3,3′-azetidine]-1′-yl)-6-[(1R,5S)-3,8-diazabicyclo[3.2.1]octan-3-yl]pyrimidine-5-carbonitrile] | > 100000 | 100 to 1000
13 | N#Cc1c(N2C[C@H]3CC[C@@H](C2)N3)nc(OCc2n[nH]cc2C(F)(F)F)nc1N1CC2(CCc3sc(N)c(C#N)c32)C1 [Compound 106, 2-amino-1′-[5-cyano-6-[(1R,5S)-3,8-diazabicyclo[3.2.1]octan-3-yl]-2-[[4-(trifluoromethyl)-1H-pyrazol-3-yl]methoxy]pyrimidin-4-yl]spiro[5,6-dihydrocyclopenta[b]thiophene-4,3′-azetidine]-3-carbonitrile] | 10000 to 100000 | 10 to 100
14 | CN1CCc2c(cccc2Oc2nc(N3C[C@H]4CC[C@@H](C3)N4)c(C#N)c(N3CC4(CCc5sc(N)c(C#N)c54)C3)n2)C1 [Compound 57, 2-amino-1′-[5-cyano-2-[(2-methyl-3,4-dihydro-1H-isoquinolin-5-yl)oxy]-6-[(1R,5S)-3,8-diazabicyclo[3.2.1]octan-3-yl]pyrimidin-4-yl]spiro[5,6-dihydrocyclopenta[b]thiophene-4,3′-azetidine]-3-carbonitrile] | 10000 to 100000 | 1000 to 20000
15 | N#Cc1c(N)sc2c1C1(CC2)CN(c2nc(OC[C@@]34CCCN3C[C@H](F)C4)nc(N3CCCC(C#N)CC3)c2F)C1 (stereo partly drawn) [Compound 51, 2-amino-1′-[6-(4-cyanoazepan-1-yl)-5-fluoro-2-[[(2R,8S)-2-fluoro-1,2,3,5,6,7-hexahydropyrrolizin-8-yl]methoxy]pyrimidin-4-yl]spiro[5,6-dihydrocyclopenta[b]thiophene-4,3′-azetidine]-3-carbonitrile] | 1000 to 10000 | 10 to 100
16 | CN(C)C(=O)c1nn2c(c1Cl)CN(c1nc(OC[C@@]34CCCN3C[C@H](F)C4)nc(N3CC4(C3)C(=O)Cc3ccccc34)c1C#N)CCC2 [Compound 37, 3-chloro-5-[5-cyano-2-[[(2R,8S)-2-fluoro-1,2,3,5,6,7-hexahydropyrrolizin-8-yl]methoxy]-6-(2′-oxospiro[azetidine-3,1′-indane]-1-yl)pyrimidin-4-yl]-N,N-dimethyl-4,6,7,8-tetrahydropyrazolo[1,5-a][1,4]diazepine-2-carboxamide] | > 100000 | > 20000
17 | N#Cc1cnc(OC[C@@]23CCCN2C[C@H](F)C3)nc1N1CC2(CCc3sc(N)c(C#N)c32)C1 [Compound 65, 2-amino-1′-[5-cyano-2-[[(2R,8S)-2-fluoro-1,2,3,5,6,7-hexahydropyrrolizin-8-yl]methoxy]pyrimidin-4-yl]spiro[5,6-dihydrocyclopenta[b]thiophene-4,3′-azetidine]-3-carbonitrile] | 10000 to 100000 | 1000 to 20000
18 | CO/N=C(\C)c1nn2c(c1Cl)CN(c1nc(OC[C@@]34CCCN3C[C@H](F)C4)nc(N3CC4(CCc5sc(N)c(C#N)c54)C3)c1C#N)CCC2 [Compound 20, 2-amino-1′-[6-[3-chloro-2-[(E)-N-methoxy-C-methyl-carbonimidoyl]-4,6,7,8-tetrahydropyrazolo[1,5-a][1,4]diazepin-5-yl]-5-cyano-2-[[(2R,8S)-2-fluoro-1,2,3,5,6,7-hexahydropyrrolizin-8-yl]methoxy]pyrimidin-4-yl]spiro[5,6-dihydrocyclopenta[b]thiophene-4,3′-azetidine]-3-carbonitrile] | 1000 to 10000 | < 10
